From patent EP0268871A1, “Quinoline derivatives” (priority 1986, dated 1988)

Target: acetylcholinesterase (Homo sapiens, UniProt P22303)
Assay: Determination of inhibitory activity against acetylcholinesterase (photometric method of Ellman et al.)
Format: biochemical
Settings: Relative ratio = IC50 (molar) of Tacrine / IC50 (molar) of test compound; IC50 = concentration of drug which inhibits 50% level of control
Description: Determination of inhibitory activity against acetylcholinesterase
The inhibitory activity against acetylchalinesterase of the compounds provided with the present invention was determined by the photometric methods described in Ellman et al., Biochemical Pharmacology, Vol. 7, p.

Sequence of acetylcholinesterase (P22303 32-614): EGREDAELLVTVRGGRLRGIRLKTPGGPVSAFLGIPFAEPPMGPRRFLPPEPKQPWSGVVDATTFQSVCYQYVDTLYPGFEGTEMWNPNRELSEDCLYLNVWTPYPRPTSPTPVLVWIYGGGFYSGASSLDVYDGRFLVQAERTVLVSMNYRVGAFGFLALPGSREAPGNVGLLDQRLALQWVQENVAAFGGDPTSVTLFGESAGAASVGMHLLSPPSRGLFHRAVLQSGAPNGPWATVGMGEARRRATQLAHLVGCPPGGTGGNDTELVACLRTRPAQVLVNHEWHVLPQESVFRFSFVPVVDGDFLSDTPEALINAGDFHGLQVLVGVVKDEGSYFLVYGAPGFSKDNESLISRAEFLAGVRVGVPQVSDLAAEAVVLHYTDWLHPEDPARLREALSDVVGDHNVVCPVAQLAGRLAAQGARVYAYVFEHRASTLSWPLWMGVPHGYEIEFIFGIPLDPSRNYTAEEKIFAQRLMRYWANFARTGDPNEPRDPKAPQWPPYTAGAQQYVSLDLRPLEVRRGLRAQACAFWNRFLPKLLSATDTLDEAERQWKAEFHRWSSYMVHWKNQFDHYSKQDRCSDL

Row | Structure (SMILES) | Acetylcholinesterase Inhibition (reative ratio*)
1 | Nc1c2c(nc3cccc(F)c13)CSCC2 [compound 118] | 3.13
2 | Cc1cccc2nc3c(c(N)c12)CC(C)C3 (centres unmarked) [Example 14] | 1.27
3 | Nc1c2c(nc3cc(F)c(F)cc13)CCCCC2 [compound 38] | 2.04
4 | Nc1c2c(nc3cc(F)ccc13)CCCC2 [Example 2, 9-amino-6-fluoro-1,2,3,4-tetrahydroacridine] | 2.53
5 | Nc1c2c(nc3cc(C(F)(F)F)ccc13)CCCC2 [compound 36] | 1.15
6 | Nc1c2c(nc3c(F)cccc13)CCCCC2 [compound 156] | 2.50
7 | Cc1cccc2nc3c(c(N)c12)CSCC3 [compound 112] | 1.30
8 | Nc1c2c(nc3cccc(F)c13)CCCC2 [compound 157] | 3.60
9 | Nc1c2c(nc3cc(Cl)ccc13)C1C=CC2CC1 (centres unmarked) [Example 94] | 2.22
10 | Nc1c2c(nc3cccc(Cl)c13)CSCC2 [compound 149] | 4.12
11 | Nc1c2c(nc3cccc(F)c13)CCC2 [Example 6] | 1.75
